Test results taken from patent publication US20090131449A1, “USE OF TRPV1 RECEPTOR ANTAGONISTS FOR TREATING DRY EYE AND OCULAR PAIN” (ALCON RESEARCH, LTD., priority 2007, published 2009).

Experiments:
[1] = system: mechanical blink response in normal rats; test: corneal anesthetic activity, blinks induced by mechanical touch (Cochet-Bonnet Esthesiometer); format: in vivo, Sprague Dawley rats; settings: rat; for inhibition of mechanical blink response / topical anesthetic activity (in words): 1% concentration; for Total number of Blinks/Total number of Touches: 20 μl topical ocular, N = 6/group; for Total number of Blinks/Total number of Touches / % Blocked (mechanical blink response): pretreatment 5 min; for % Blocked (mechanical blink response): topical ocular
Excerpt: Corneal anesthetic effects of TRPV1 antagonists were examined by analyzing suppression of blinks induced by mechanical touch. A Cochet-Bonnet Esthesiometer was used to determine corneal anesthetic activities of the TRPV1 antagonist, AMG-517 (AL-49975), in normal rats. Male Sprague Dawley rats (˜500 g) were divided into groups of 6 each, restrained in a DecapiCone rat restraint, and secured at the posterior with tape. A hole was cut into the cone to expose the right eye. Twenty-four hours prior to the experiment the eyelashes and whiskers were trimmed with scissors. The right eye was dosed with 20 μl of drug or maxidex vehicle, and the timer was set for 5 minutes to allow the rat time to acclimate. The Cochet-Bonnet Esthesiometer fiber was set at 30 mm and perpendicularly touched by a masked observer to the center of the cornea 10 times with a 3 second delay between counts. Blinks were counted with each touch of the fiber, and a total score out of 10 was recorded. If more than one blink occurred in response to a single touch, this event was counted as one blink response.

[2] = system: Formalin-Induced Blink Response in Rats; test: formalin-induced blink response assay (ocular pain); format: in vivo, Sprague-Dawley rats; settings: rat; for Number of Blinks/1 min Mean ± S.D.: 20 μL topical ocular, 0.1% formalin challenge; for Number of Blinks/1 min Mean ± S.D. / % Inhibition of formalin-induced blink response: pretreatment 5 min; for % Inhibition of formalin-induced blink response: topical ocular; for inhibition of formalin-induced blink response (in words): highest concentration tested (1%)
Procedure: The effects of two transient receptor potential vanilloid receptor subfamily, member 1 (TRPV1) antagonists on ocular pain in rats were tested using a formalin-induced blink response assay. Sprague-Dawley rats were treated topical ocular with 20 μL of vehicle (maxidex vehicle), N-{4-[6-(4-trifluoromethyl-phenyl)-pyrimidin-4-yloxy]-benzothiazol-2-yl}-acetamide (AL-49975, also known as AMG-517, Amgen Inc., Thousand Oaks, Calif.), or (R)—N-(4-(6-(4-(1-(4-fluorophenyl)ethyl)piperazin-1-yl)pyrimidin-4-yloxy)benzo[d]thiazol-2-yl)acetamide (AL-49976, also known as AMG-628, Amgen Inc., Thousand Oaks, Calif.) to one eye only. After the appropriate pretreatment time of about 5 minutes, 5 μL of 0.1% formalin was applied topical ocular. Each rat was placed in a clear plastic box, and the number of blinks was counted for 1 minute immediately following the formalin challenge.

[3] = 1% conc., *p < 0.05 Dunnett's t-test

Row | SMILES | inhibition of mechanical blink response / topical anesthetic activity (in words) [1] | inhibition of mechanical blink response / topical anesthetic activity (in words) ([1]; listed as AMG-517) | Total number of Blinks/Total number of Touches ([1]; 1%) | % Blocked (mechanical blink response) ([1]; 1%) [%] | Number of Blinks/1 min Mean ± S.D. ([2]; 0.01% conc.) [Blinks/1 min] | % Inhibition of formalin-induced blink response ([2]; 0.01% conc.) [%] | Number of Blinks/1 min Mean ± S.D. ([2]; 0.1% conc.) [Blinks/1 min] | % Inhibition of formalin-induced blink response ([2]; 0.1% conc.) [%] | Number of Blinks/1 min Mean ± S.D. ([2]; 1% conc.) [Blinks/1 min] | % Inhibition of formalin-induced blink response [2, 3] | inhibition of formalin-induced blink response (in words) [2] | Total number of Blinks/Total number of Touches ([1]; 0.5%) | % Blocked (mechanical blink response) ([1]; 0.5%, *p < 0.01 Chi-squared vs. vehicle) | % Blocked (mechanical blink response) ([1]; 0.5%, *p < 0.01 Chi-squared vs. vehicle, listed as proparacaine) [%]
1 | CC(=O)Nc1nc2c(Oc3cc(-c4ccc(C(F)(F)F)cc4)ncn3)cccc2s1 [AL-49975, N-{4-[6-(4-trifluoromethyl-phenyl)-pyrimidin-4-yloxy]-benzothiazol-2-yl}-acetamide] | did not significantly inhibit the blink response | did not have topical anesthetic activity | 54/60 | 10 | 58 ± 11 | 20 | 51 ± 18 | 29 | 44 ± 17 | 39* % | dose-dependent fashion, achieving significant inhibition |  |  | 
2 | CC(=O)Nc1nc2c(Oc3cc(N4CCN([C@H](C)c5ccc(F)cc5)CC4)ncn3)cccc2s1 [AL-49976, (R)—N-(4-(6-(4-(1-(4-fluorophenyl)ethyl)piperazin-1-yl)pyrimidin-4-yloxy)benzo[d]thiazol-2-yl)acetamide] |  |  |  |  | 58 ± 7 | 19 | 66 ± 23 | 9 | 47 ± 11 | 35* % | significantly inhibited the pain response |  |  | 
3 | CCCOc1ccc(C(=O)OCCN(CC)CC)cc1N [Alcaine, proparacaine, reference compound] |  |  |  |  |  |  |  |  |  |  |  | 2/60 | 97* % | 95
